# Experimental data published in patent US9815851B2, “Pyrrolo carboxamides as modulators of orphan nuclear receptor RAR-related orphan receptor-gamma (RORγ, NR1F3) activity and for the treatment of chronic inflammatory and autoimmune diseases” (PHENEX PHARMACEUTICALS AG, priority 2011, dated 2017).
# Read-outs that look alike come from different tables or passages of the source.
# Experiments:
# [1] = target: T1, RORγ (UniProt P51449); experiment: RORγ Gal4 Reporter Gene Assay in 293T cells (firefly and renilla luciferase); assay type: cell-based, human
# T1 sequence (P51449 1-518): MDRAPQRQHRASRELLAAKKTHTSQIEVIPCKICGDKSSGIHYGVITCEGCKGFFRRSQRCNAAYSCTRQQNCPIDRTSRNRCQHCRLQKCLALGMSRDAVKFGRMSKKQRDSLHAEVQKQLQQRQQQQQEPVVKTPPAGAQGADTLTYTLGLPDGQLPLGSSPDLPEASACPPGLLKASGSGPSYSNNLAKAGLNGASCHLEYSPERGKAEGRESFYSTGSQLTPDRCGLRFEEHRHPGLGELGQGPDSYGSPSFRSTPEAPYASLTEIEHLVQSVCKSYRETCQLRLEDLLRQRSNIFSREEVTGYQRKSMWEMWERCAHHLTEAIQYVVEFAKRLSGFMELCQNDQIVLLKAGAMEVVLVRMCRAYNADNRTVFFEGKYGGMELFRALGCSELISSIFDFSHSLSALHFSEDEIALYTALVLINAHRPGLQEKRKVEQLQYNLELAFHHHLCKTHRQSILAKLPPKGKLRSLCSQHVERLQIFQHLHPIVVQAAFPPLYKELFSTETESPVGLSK
# [2] = target: T2, RORγ ligand binding domain (LBD) (Homo sapiens, UniProt P51449); experiment: TR-FRET Activity Assay (ligand sensing, RORγ-LBD / coactivator peptide interaction, LANCE); assay type: biochemical
# T2 construct: made in house; host or cells: E. coli BL-21 (BL3), vector pDEST15
# T2 sequence (P51449 269-508 limits assumed): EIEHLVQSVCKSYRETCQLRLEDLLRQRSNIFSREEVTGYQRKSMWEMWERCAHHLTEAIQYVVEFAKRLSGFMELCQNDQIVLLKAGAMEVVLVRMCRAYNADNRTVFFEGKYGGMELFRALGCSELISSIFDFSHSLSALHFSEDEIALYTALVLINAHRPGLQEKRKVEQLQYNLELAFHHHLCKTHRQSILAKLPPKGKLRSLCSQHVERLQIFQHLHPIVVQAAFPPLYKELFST
# [3] = second value of the cell, Gal4 reporter gene assay in 293T cells, firefly luciferase
# [4] = third value of the cell, Gal4 reporter gene assay in 293T cells, renilla normalised luciferase
# [5] = first value of the cell FRET/FF/REN, TR-FRET activity assay, read-out: pIC50 (FRET) (converted)
"pIC50 (FF) [1, 3]","pIC50 (REN) [1, 4]","IC50 [2, 5]",SMILES,pIC50 (FF) [1],pIC50 (REN) [1],IC50 [2]
7.6,7.6,631 nM,Cc1c(S(=O)(=O)NC(C)(C)C)ccc(-c2cc(C(=O)NCC3(O)CCS(=O)(=O)CC3)c(C)n2CC2CCCCC2)c1Cl [17/290],,,
7.6,7.7,398 nM,Cc1c(S(=O)(=O)NC(C)(C)C)ccc(-c2cc(C(=O)NCC(C)(C)O)c(C)n2CC2CCCCC2)c1Cl [17/291],,,
7.5,7.4,1260 nM,Cc1c(C(=O)N[C@H]2C[C@H](C(=O)O)C2)cc(-c2cc(C(C)(C)C)nc(C3(C)CC3)c2)n1CC1CCCCC1 [17/292],,,
6.6,6.7,1260 nM,Cc1c(C(=O)N2CC3(COCC(=O)N3)C2)cc(-c2ccc(S(=O)(=O)NC(C)(C)C)c(C(F)(F)F)c2)n1CC1CCCCC1 [17/293],,,
< 4.7,< 4.7,3160 nM,Cc1c(C(=O)N2CC3(C2)NC(=O)CNC3=O)cc(-c2ccc(S(=O)(=O)NC(C)(C)C)c(C(F)(F)F)c2)n1CC1CCCCC1 [17/294],,,
6.6,6.5,1000 nM,Cc1c(C(=O)NC2CNC(=O)C23CCOCC3)cc(-c2ccc(S(=O)(=O)NC(C)(C)C)c(C(F)(F)F)c2)n1CC1CCCCC1 (stereo not drawn) [17/295],,,
7.0,7.1,251 nM,Cc1c(C(=O)NC2CCOCC2)cc(-c2cc(Cl)cc(C3(C)CC3)c2)n1CC1CCCCC1 [17/296],,,
7.1,7.5,5010 nM,Cc1c(C(=O)N[C@H]2C[C@H](C(=O)O)C2)cc(-c2cc(Cl)cc(C3(C)CC3)c2)n1CC1CCCCC1 [17/299],,,
7.3,7.6,794 nM,Cc1c(C(=O)N[C@H]2C[C@H](C(=O)O)C2)cc(-c2cc(C(F)(F)F)cc(C3(C)CC3)c2)n1CC1CCCCC1 [17/300],,,
7.6,7.6,2000 nM,Cc1c(C(=O)NC23CCC(C(=O)O)(CC2)C3)cc(-c2cc(C(C)(C)O)cc(C3(C)CC3)c2)n1CC1CCCCC1 [17/301],,,
6.3,6.4,3980 nM,COC(C)(C)c1cc(-c2cc(C(=O)NC3CCOCC3)c(C)n2CC2CCCCC2)cc(C(C)NC(C)C)c1 (stereo not drawn) [17/303],,,
7.2,7.3,1580 nM,Cc1c(C(=O)N[C@H]2C[C@H](C(=O)O)C2)cc(-c2cc(C(C)(C)C)cc(C(F)(F)F)c2)n1CC1CCCCC1 [17/304],,,
,,,Cc1c(C(=O)NCCC(C)(C)C(=O)O)cc(-c2cc(C(C)(C)C)cc(C(F)(F)F)c2)n1CC1CCCCC1 [17/305],5.7/6.8/6.7,5.7/6.8/6.7,2000 nM
6.2,6.0,3160 nM,Cc1c(C(=O)N[C@H]2C[C@H](C(=O)O)C2)cc(-c2cc(C(C)(C)O)cc(C(F)(F)F)c2)n1CC1CCCCC1 [17/307],,,
6.5,6.4,6310 nM,Cc1c(C(=O)NCCC(C)(C)C(=O)O)cc(-c2cc(C(C)(C)O)cc(C(F)(F)F)c2)n1CC1CCCCC1 [17/308],,,
,,,Cc1c(C(=O)NCC(C)(C)c2nnn[nH]2)cc(-c2cc(C(C)(C)O)cc(C3(C)CC3)c2)n1CC1CCCCC1 [17/309],6.1/6.7/6.8,6.1/6.7/6.8,794 nM
7.4,7.6,1000 nM,Cc1c(C(=O)NCC(C)(C)c2noc(=O)[nH]2)cc(-c2cc(C(C)(C)O)cc(C3(C)CC3)c2)n1CC1CCCCC1 [17/310],,,
,,,Cc1c(C(=O)NCC(C)(C)O)cc(-c2cc(C(C)(C)O)cc(C3(C)CC3)c2)n1CC1CCCCC1 [17/313],6.0/6.8/6.8,6.0/6.8/6.8,1000 nM

"pIC50 (FF) [1, 3]","pIC50 (REN) [1, 4]","IC50 [2, 5]",SMILES,pIC50 (FF) [1],pIC50 (REN) [1],IC50 [2]
7.2,7.1,1000 nM,Cc1c(C(=O)NCC2(O)CCOCC2)cc(-c2cc(C(C)(C)O)cc(C3(C)CC3)c2)n1CC1CCCCC1 [17/314],,,
6.5,6.5,1260 nM,Cc1c(C(=O)NCCS(N)(=O)=O)cc(-c2cc(C(C)(C)O)cc(C3(C)CC3)c2)n1CC1CCCCC1 [17/315],,,
6.3,6.3,2510 nM,Cc1c(C(=O)NCCN2CCOCC2)cc(-c2cc(C(C)(C)O)cc(C3(C)CC3)c2)n1CC1CCCCC1 [17/316],,,
6.5,6.5,2510 nM,Cc1c(C(=O)NCCS(C)(=O)=O)cc(-c2cc(C(C)(C)O)cc(C3(C)CC3)c2)n1CC1CCCCC1 [17/317],,,
7.7,7.6,2000 nM,Cc1c(C(=O)NCC2(C(N)=O)CCOCC2)cc(-c2cc(C(C)(C)O)cc(C3(C)CC3)c2)n1CC1CCCCC1 [17/318],,,
6.5,6.6,2000 nM,Cc1c(C(=O)NCC2(O)CCS(=O)(=O)CC2)cc(-c2cc(C(C)(C)O)cc(C3(C)CC3)c2)n1CC1CCCCC1 [17/319],,,
,,,Cc1c(C(=O)NCC2CCS(=O)(=O)CC2)cc(-c2cc(C(C)(C)O)cc(C3(C)CC3)c2)n1CC1CCCCC1 [17/320],5.8/7.3/7.3,5.8/7.3/7.3,1580 nM
7.3,7.3,1000 nM,Cc1c(C(=O)NC2CCS(=O)(=O)CC2)cc(-c2cc(C(C)(C)O)cc(C3(C)CC3)c2)n1CC1CCCCC1 [17/321],,,
5.9,6.0,3980 nM,Cc1c(C(=O)NC2CCOCC2)cc(-c2cc(C(=O)NC(C)(C)C)cc(C(C)(C)O)c2)n1CC1CCCCC1 [17/322],,,
5.6,5.7,7940 nM,Cc1c(C(=O)NC2CCOCC2)cc(-c2cc(C(=O)NC(C)C)cc(C(C)(C)O)c2)n1CC1CCCCC1 [17/323],,,
,,,COC(C)(C)c1cc(C(=O)NC(C)(C)C)cc(-c2cc(C(=O)NC3CCOCC3)c(C)n2CC2CCCCC2)c1 [17/324],5.5/6.8/6.8,5.5/6.8/6.8,3160 nM
,,,COC(C)(C)c1cc(-c2cc(C(=O)NC3CCOCC3)c(C)n2CC2CCCCC2)cc2c1OCCC21CC1 [17/325],5.6/7.1/7.2,5.6/7.1/7.2,2510 nM
7.8,7.9,1000 nM,Cc1c(C(=O)N[C@H]2C[C@H](C(=O)O)C2)cc(-c2cc(C(C)(C)C)cc(C3(C)CC3)c2)n1CC1CCCCC1 [17/326],,,
6.8,6.9,794 nM,Cc1c(C(=O)NCC(C)(C)C(=O)O)cc(-c2ccc(S(=O)(=O)NC(C)(C)C)c(C(C)(C)O)c2)n1CC1CCCCC1 [17/327],,,
6.6,6.6,501 nM,Cc1c(C(=O)N[C@H]2C[C@H](C(=O)O)C2)cc(-c2ccc(S(=O)(=O)NC(C)(C)C)c(C(C)(C)O)c2)n1CC1CCCCC1 [17/328],,,
6.8,6.9,2510 nM,Cc1c(C(=O)NCC(C)(C)C(=O)O)cc(-c2cc(C(=O)NC(C)(C)C)cc(C(C)(C)C)c2)n1CC1CCCCC1 [17/329],,,
7.3,7.4,2510 nM,Cc1c(C(=O)N[C@H]2C[C@H](C(=O)O)C2)cc(-c2cc(C(=O)NC(C)(C)C)cc(C(C)(C)C)c2)n1CC1CCCCC1 [17/330],,,

SMILES,"pIC50 (FF) [1, 3]","pIC50 (REN) [1, 4]","IC50 [2, 5]",pIC50 (FF) [1],pIC50 (REN) [1],IC50 [2]
Cc1c(C(=O)NC2CCOCC2)cc(-c2cc(C(F)(F)F)cc(C3(C)CC3)c2)n1CC1CCCCC1 [17/297],7.2,7.4,126 nM,,,
Cc1c(C(=O)N[C@H]2C[C@H](C(=O)O)C2)cc(-c2cc(Cl)cc(C(=O)NC(C)(C)C)c2)n1CC1CCCCC1 [17/298],5.9,6.0,2510 nM,,,
Cc1c(C(=O)NC23CCC(C(=O)O)(CC2)CC3)cc(-c2cc(C(C)(C)O)cc(C3(C)CC3)c2)n1CC1CCCCC1 [17/302],7.3,7.2,1580 nM,,,
Cc1c(C(=O)NC2CCOCC2)cc(-c2cc(C(C)(C)O)cc(C(F)(F)F)c2)n1CC1CCCCC1 [17/306],6.8,6.9,1580 nM,,,
Cc1c(C(=O)N[C@H]2C[C@H](C(=O)O)C2)cc(-c2cc(C3(C)CC3)nc(C(C)(C)C)n2)n1CC1CCCCC1 [17/311],7.0,7.2,794 nM,,,
Cc1c(C(=O)N[C@H]2C[C@H](C(=O)O)C2)cc(-c2cc(C(C)(C)C)nc(C3(C)CC3)n2)n1CC1CCCCC1 [17/312],7.2,7.3,316 nM,,,
